Molecules are shown by their SMILES. Like-named read-outs stand apart in the source and are kept apart here.

For data set [1], the system named is Echinochloa crus. Kind of data set: Paddy field farming herbicidal composition test, plant mortality. In kind it is in vivo.
Source text: (§1) X is % damage by uracil compound (a) of formula 1 at the rate of application of p kg/ha; Y is % damage by conventional herbicidal compound (b) at the rate of application of q kg/ha; and E is the expected damage caused by compounds (a) and (b) at a rate of application of p and q kg/ha.
(§2) The expected activity for a given combination of two herbicides can be calculated using equation 1 above.
For data set [2], the system named is Monochoria vaginalis. Described as above. In kind it is in vivo.
Source text: as §1, §2
Data set [3] has as its system Abutilon theophrasti. The experiment in a line: whole plant or invertebrate.
Source text: as §1, §2
For data set [4], the system named is Digitaria sanguinalis. The following applies: Digitaria sanguinalis.
Source text: as §1, §2
Data set [5] has as its system Aeschynomene indica. Kind of data set: whole plant or invertebrate.
Source text: as §1, §2
The subject of data set [6] is Echinochloa crus. As to conditions: Echinochloa crus.
Source text: as §1, §2
In data set [7] the test system is Xanthium spinosum. The experiment in a line: whole plant or invertebrate.
Source text: as §1, §2
Data set [8] has as its system Abutilon theophrasti. As to conditions: 20 g/ha; Abutilon theophrasti.
Source text: as §1, §2
Data set [9] concerns Abutilon theophrasti. Kind of data set: Dry field farming herbicidal composition test, plant mortality. The format is in vivo.
Source text: as §1, §2
In data set [10] the test system is corn.
Data set [11] has as its system Aeschynomene indica. Kind of data set: Dry field farming herbicidal composition test, plant mortality. The format is in vivo.
Source text: as §1, §2
For data set [12], the system named is Echinochloa crus. The data set is described as above. The format is in vivo.
Source text: as §1, §2
The subject of data set [13] is Digitaria sanguinalis. The description is as above. The format is in vivo.
Source text: as §1, §2
The mark [14] stands for this setting: Echinochloa, read-out: Echinochloa crus mortality, measured value.
The mark [15] stands for this setting: Pontederia vaginalis, read-out: Monochoria vaginalis mortality (measured value).
Setting [16] is: read-out: plant mortality, measured value, 20 g/ha.
[17] abbreviates: read-out: plant mortality, measured value, 40 g/ha.
The mark [18] stands for this setting: read-out: plant mortality, measured value, 80 g/ha.
The mark [19] stands for this setting: Abutilon theophrasti, read-out: Abutilon theophrasti mortality, measured value.
Where [20] appears, read: Aeschynomene indica, read-out: Aeschynomene indica mortality, measured value.
[21] abbreviates: Digitaria sanguinalis, read-out: Digitaria sanguinalis mortality, measured value.

In the case of `COP(=S)(OC)SCC(=O)N(c1ccc(Cl)cc1)C(C)(C)C` [Anilofos], the pest or weed control at 75 g/ha in data set [1] (setting [14]) was determined as 50%; in data set [2] (setting [15]), 0%.

As to `COc1cc(OC)nc(NC(=O)NS(=O)(=O)c2c(-c3nnn(C)n3)cnn2C)n1` [Azimsulfuron], the pest or weed control at 5 g/ha came to 30% in data set [1] (Echinochloa, 5 g/ha, read-out: Echinochloa crus mortality (measured value)) and 50% in [2] (Pontederia vaginalis, 5 g/ha, read-out: Monochoria vaginalis mortality (measured value)).

In the case of `CS(=O)(=O)c1ccc(C(=O)C2=C(Sc3ccccc3)C3CCC(C3)C2=O)c(Cl)c1` (stereo not drawn) [Benzobicyclon], the “Echinochloa crus mortality, measured value” (“Echinochloa crus mortality” for short) in [1] (50 g/ha) was 0. The “Monochoria vaginalis mortality (measured value)” value (“Monochoria vaginalis mortality” for short) in data set [2] (50 g/ha) was determined as 30.

Turning to `CC(C)(NC(=O)C(Br)C(C)(C)C)c1ccccc1` (stereo not drawn) [Bromobutide], the pest or weed control at 225 g/ha in data set [1] (Echinochloa, 225 g/ha, read-out: Echinochloa crus mortality (measured value)) stood at 0%; in data set [2] (Pontederia vaginalis, 225 g/ha, read-out: Monochoria vaginalis mortality (measured value)), 50%.

Take `C=CCOC(=O)C(C)(C)OC(=O)c1cc(-n2c(=O)cc(C(F)(F)F)n(C)c2=O)ccc1Cl` [Butafenacil]: the pest or weed control at 20 g/ha is 55% in [3] (setting [16]), 51% in data set [5] (setting [16]) and 42% in [7] (setting [16]). For the same compound, the pest or weed control at 40 g/ha in data set [3] (setting [17]) worked out at 94%; in [5] (setting [17]), 99%; in data set [7] (setting [17]) it was 90%. The pest or weed control at 80 g/ha in data set [3] (setting [18]), in data set [5] (setting [18]) and in data set [7] (setting [18]) was 100% throughout. Further, the “plant mortality, measured value” in data set [4] (4 g/ha) is on record as 0; in data set [4] (20 g/ha), 12; in [4] (40 g/ha), 40; in [4] (80 g/ha), 70; in [6] (4 g/ha), 0; in [6] (8 g/ha) it was 0. Also, the “plant mortality, measured value” in data set [6] (20 g/ha) is 12; in data set [6] (40 g/ha), 30; in [6] (80 g/ha), 53; in data set [8], 55. Besides, the pest or weed control at 8 g/ha in data set [5] (read-out: plant mortality, measured value, 8 g/ha) was 45%. Moreover, the pest or weed control at 4 g/ha in data set [7] (read-out: plant mortality, measured value, 4 g/ha) turned out to be 15%. The pest or weed control at 16 g/ha in data set [7] (read-out: plant mortality, measured value, 16 g/ha) turned out to be 54%.

As to `CCN(CC)C(=O)n1cnc(S(=O)(=O)c2c(C)cc(C)cc2C)n1` [Cafenstrole], the pest or weed control at 50 g/ha in [1] (setting [14]) came out at 20%; in data set [2] (setting [15]) it was 30%.

Turning to `COCCOc1ccccc1S(=O)(=O)NC(=O)N=c1nc(OC)[nH]c(OC)n1` [Cinosulfuron], the pest or weed control at 10 g/ha came to 20% in [1] (setting [14]) and 30% in data set [2] (setting [15]).

As for `COc1cc(OC)nc(NC(=O)NS(=O)(=O)Nc2ccccc2C(=O)C2CC2)n1` [Cyclosulfamuron], the pest or weed control at 11 g/ha in data set [1] (Echinochloa, 11 g/ha, read-out: Echinochloa crus mortality (measured value)) is 30%; in data set [2] (Pontederia vaginalis, 11 g/ha, read-out: Monochoria vaginalis mortality (measured value)) it was 50%.

As for `CCN(C(=O)SCc1ccccc1)C(C)C(C)C` (stereo not drawn) [Esprocarb], the pest or weed control at 500 g/ha came out at 20% in data set [1] (setting [14]) and 30% in [2] (setting [15]).

As for `CCOc1ccccc1OS(=O)(=O)NC(=O)Nc1nc(OC)cc(OC)n1` [Ethoxysulfuron], the pest or weed control at 15 g/ha amounted to 10% in data set [1] (setting [14]) and 20% in data set [2] (setting [15]).

Turning to `CCN(C(=O)n1nnn(-c2ccccc2Cl)c1=O)C1CCCCC1` [Fentrazamide], the pest or weed control at 50 g/ha in data set [1] (setting [14]) was determined as 20%; in data set [2] (setting [15]), 30%.

Turning to `COc1cc(OC)nc(NC(=O)NS(=O)(=O)c2c(C(=O)O)c(Cl)nn2C)n1` [Halosulfuron], the pest or weed control at 11 g/ha in data set [1] (setting [14]) and in data set [2] (setting [15]) was 30% each time.

Consider `COc1cc(OC)nc(NC(=O)NS(=O)(=O)c2c(Cl)nc3ccccn23)n1` [Imazosulfuron], for which the pest or weed control at 18 g/ha is 20% in data set [1] (Echinochloa, 18 g/ha, read-out: Echinochloa crus mortality (measured value)) and 40% in [2] (Pontederia vaginalis, 18 g/ha, read-out: Monochoria vaginalis mortality (measured value)).

As to `CCC1(CC2(c3cccc(Cl)c3)CO2)C(=O)c2ccccc2C1=O` (stereo not drawn) [Indanofan], the pest or weed control at 37.5 g/ha in data set [1] (setting [14]) was 25%; in data set [2] (setting [15]), 0%.

Turning to `CN(C(=O)COc1nc2ccccc2s1)c1ccccc1` [Mefenacet], the pest or weed control at 200 g/ha in data set [1] (setting [14]) and in [2] (setting [15]) was 30% each time.

For `CS(=O)(=O)c1ccc(C(=O)C2C(=O)CCCC2=O)c([N+](=O)[O-])c1` [Mesotrione], the “Abutilon theophrasti mortality, measured value” amounted to 15 in data set [9] (15 g/ha), 29 in data set [9] (30 g/ha) and 58 in [9] (60 g/ha). For the same compound, the pest or weed control at 15 g/ha in [9] (setting [19]) was determined as 15%; in data set [11] (setting [20]) it was 11%; in [12] (setting [14]), 0%; in data set [13] (setting [21]), 0%. Further, the pest or weed control at 30 g/ha in data set [9] (setting [19]) stood at 29%; in [11] (setting [20]), 27%; in data set [12] (setting [14]), 5%; in data set [13] (setting [21]) it was 5%. The pest or weed control at 60 g/ha in data set [9] (setting [19]) is 58%; in data set [11] (setting [20]), 54%; in [12] (setting [14]) it was 15%; in [13] (setting [21]), 10%. Further, the figures for the “Corn mortality (measured value)” value in data set [10] (15 g/ha), in data set [10] (30 g/ha) and in data set [10] (60 g/ha) were 0, 0 and 1, respectively. The “Corn mortality, measured value” worked out at 0 in [10] (15 g/ha), 0 in data set [10] (30 g/ha) and 1 in [10] (60 g/ha). Moreover, the “Aeschynomene indica mortality, measured value” in [11] (15 g/ha) is given as 11; in [11] (30 g/ha), 27; in [11] (60 g/ha), 54. The figures for the “Echinochloa crus mortality” value in [12] (15 g/ha), in data set [12] (30 g/ha) and in [12] (60 g/ha) were 0, 5 and 15, respectively. Moreover, the “Digitaria sanguinalis mortality, measured value” is 0 in data set [13] (15 g/ha), 5 in [13] (30 g/ha) and 10 in data set [13] (60 g/ha).

Regarding `COc1cc(OC)nc(NC(=O)NS(=O)(=O)c2c(C3=NOCC(C)O3)c(Cl)nn2C)n1` (stereo not drawn) [Metazosulfuron], in data set [1] (25 g/ha), the “Echinochloa crus mortality” value was 35. In addition, the “Monochoria vaginalis mortality” value in data set [2] (25 g/ha) amounted to 40.

In the case of `COc1cc(OC)nc(NC(=O)NS(=O)(=O)c2ncccc2C(=O)N(C)C)n1` [Nicosulfuron], the pest or weed control at 5 g/ha in [9] (setting [19]) stood at 8%; in data set [11] (setting [20]) it was 11%; in [12] (setting [14]), 10%; in data set [13] (setting [21]), 7%. In addition, the pest or weed control at 10 g/ha in data set [9] (setting [19]) was 26%; in data set [11] (setting [20]), 30%; in data set [12] (setting [14]), 24%; in data set [13] (setting [21]), 24%. Further, the pest or weed control at 20 g/ha in [9] (setting [19]) was determined as 62%; in [11] (setting [20]) it was 65%; in data set [12] (setting [14]), 50%; in data set [13] (setting [21]), 50%. In addition, the “Corn mortality, measured value” in data set [10] (5 g/ha), in data set [10] (10 g/ha) and in [10] (20 g/ha) was 0 in each case.

As for `COc1cc(OC)nc(NC(=O)NS(=O)(=O)Nc2ccccc2C(=O)N(C)C)n1` [Orthosulfamuron], in data set [1] (17.5 g/ha), the “Echinochloa crus mortality” value is listed as 10. Also, the “Monochoria vaginalis mortality” value in data set [2] (17.5 g/ha) worked out at 40.

Consider `CC1=C(c2ccccc2)C(=O)N(C(C)(C)c2cc(Cl)cc(Cl)c2)CO1` [Oxaziclomefone], for which the pest or weed control at 12.5 g/ha in data set [1] (Echinochloa, 12.5 g/ha, read-out: Echinochloa crus mortality (measured value)) was 30%; in [2] (Pontederia vaginalis, 12.5 g/ha, read-out: Monochoria vaginalis mortality (measured value)), 0%.

Regarding `CCCc1ccc2nc(Cl)c(S(=O)(=O)NC(=O)Nc3nc(OC)cc(OC)n3)n2n1` [Propyrisulfuron], in [1] (18 g/ha), the “Echinochloa crus mortality” value came to 45. Moreover, the “Monochoria vaginalis mortality” value in data set [2] (18 g/ha) stood at 45.

In the case of `COc1cccc(N(C)C(=S)Oc2cccc(C(C)(C)C)c2)n1` [Pyributicarb], the pest or weed control at 150 g/ha in data set [1] (Echinochloa, 150 g/ha, read-out: Echinochloa crus mortality (measured value)) came out at 20%; in data set [2] (Pontederia vaginalis, 150 g/ha, read-out: Monochoria vaginalis mortality (measured value)), 20%.

On to `Cc1nn(-c2cc(NS(C)(=O)=O)c(Cl)cc2Cl)c(=O)n1C(F)F` [Sulfentrazone], for which the pest or weed control at 75 g/ha in data set [9] (setting [19]) worked out at 12%; in data set [11] (setting [20]), 7%; in data set [12] (setting [14]), 0%; in [13] (setting [21]), 0%. Besides, the pest or weed control at 150 g/ha in data set [9] (setting [19]) came to 25%; in data set [11] (setting [20]) it was 25%; in data set [12] (setting [14]), 5%; in data set [13] (setting [21]), 10%. The pest or weed control at 300 g/ha in data set [9] (setting [19]) is 56%; in data set [11] (setting [20]), 53%; in data set [12] (setting [14]) it was 20%; in [13] (setting [21]), 28%. In addition, the “Corn mortality, measured value” was determined as 0 in [10] (75 g/ha), 0 in data set [10] (150 g/ha) and 1 in data set [10] (300 g/ha).
